Reference: ChEMBL document CHEMBL1141460, “Sodium channel blockers” (J Med Chem, 2007)

How the values were obtained:
[1] = test system: Rattus norvegicus; experiment: Analgesic activity in ip dosed rat by CCI model of neuropathic pain; assay type: functional
[2] = biological target: Sodium channel protein type 2 subunit alpha (Homo sapiens, UniProt Q99250); experiment: Inhibition of inactivated human Nav1.2 sodium channel
[3] = biological target: Sodium channel protein type 5 subunit alpha (Homo sapiens, UniProt Q14524); experiment: Inhibition of inactivated human Nav1.5 sodium channel
Sodium channel protein type 5 subunit alpha, sequence (Q14524 whole entry): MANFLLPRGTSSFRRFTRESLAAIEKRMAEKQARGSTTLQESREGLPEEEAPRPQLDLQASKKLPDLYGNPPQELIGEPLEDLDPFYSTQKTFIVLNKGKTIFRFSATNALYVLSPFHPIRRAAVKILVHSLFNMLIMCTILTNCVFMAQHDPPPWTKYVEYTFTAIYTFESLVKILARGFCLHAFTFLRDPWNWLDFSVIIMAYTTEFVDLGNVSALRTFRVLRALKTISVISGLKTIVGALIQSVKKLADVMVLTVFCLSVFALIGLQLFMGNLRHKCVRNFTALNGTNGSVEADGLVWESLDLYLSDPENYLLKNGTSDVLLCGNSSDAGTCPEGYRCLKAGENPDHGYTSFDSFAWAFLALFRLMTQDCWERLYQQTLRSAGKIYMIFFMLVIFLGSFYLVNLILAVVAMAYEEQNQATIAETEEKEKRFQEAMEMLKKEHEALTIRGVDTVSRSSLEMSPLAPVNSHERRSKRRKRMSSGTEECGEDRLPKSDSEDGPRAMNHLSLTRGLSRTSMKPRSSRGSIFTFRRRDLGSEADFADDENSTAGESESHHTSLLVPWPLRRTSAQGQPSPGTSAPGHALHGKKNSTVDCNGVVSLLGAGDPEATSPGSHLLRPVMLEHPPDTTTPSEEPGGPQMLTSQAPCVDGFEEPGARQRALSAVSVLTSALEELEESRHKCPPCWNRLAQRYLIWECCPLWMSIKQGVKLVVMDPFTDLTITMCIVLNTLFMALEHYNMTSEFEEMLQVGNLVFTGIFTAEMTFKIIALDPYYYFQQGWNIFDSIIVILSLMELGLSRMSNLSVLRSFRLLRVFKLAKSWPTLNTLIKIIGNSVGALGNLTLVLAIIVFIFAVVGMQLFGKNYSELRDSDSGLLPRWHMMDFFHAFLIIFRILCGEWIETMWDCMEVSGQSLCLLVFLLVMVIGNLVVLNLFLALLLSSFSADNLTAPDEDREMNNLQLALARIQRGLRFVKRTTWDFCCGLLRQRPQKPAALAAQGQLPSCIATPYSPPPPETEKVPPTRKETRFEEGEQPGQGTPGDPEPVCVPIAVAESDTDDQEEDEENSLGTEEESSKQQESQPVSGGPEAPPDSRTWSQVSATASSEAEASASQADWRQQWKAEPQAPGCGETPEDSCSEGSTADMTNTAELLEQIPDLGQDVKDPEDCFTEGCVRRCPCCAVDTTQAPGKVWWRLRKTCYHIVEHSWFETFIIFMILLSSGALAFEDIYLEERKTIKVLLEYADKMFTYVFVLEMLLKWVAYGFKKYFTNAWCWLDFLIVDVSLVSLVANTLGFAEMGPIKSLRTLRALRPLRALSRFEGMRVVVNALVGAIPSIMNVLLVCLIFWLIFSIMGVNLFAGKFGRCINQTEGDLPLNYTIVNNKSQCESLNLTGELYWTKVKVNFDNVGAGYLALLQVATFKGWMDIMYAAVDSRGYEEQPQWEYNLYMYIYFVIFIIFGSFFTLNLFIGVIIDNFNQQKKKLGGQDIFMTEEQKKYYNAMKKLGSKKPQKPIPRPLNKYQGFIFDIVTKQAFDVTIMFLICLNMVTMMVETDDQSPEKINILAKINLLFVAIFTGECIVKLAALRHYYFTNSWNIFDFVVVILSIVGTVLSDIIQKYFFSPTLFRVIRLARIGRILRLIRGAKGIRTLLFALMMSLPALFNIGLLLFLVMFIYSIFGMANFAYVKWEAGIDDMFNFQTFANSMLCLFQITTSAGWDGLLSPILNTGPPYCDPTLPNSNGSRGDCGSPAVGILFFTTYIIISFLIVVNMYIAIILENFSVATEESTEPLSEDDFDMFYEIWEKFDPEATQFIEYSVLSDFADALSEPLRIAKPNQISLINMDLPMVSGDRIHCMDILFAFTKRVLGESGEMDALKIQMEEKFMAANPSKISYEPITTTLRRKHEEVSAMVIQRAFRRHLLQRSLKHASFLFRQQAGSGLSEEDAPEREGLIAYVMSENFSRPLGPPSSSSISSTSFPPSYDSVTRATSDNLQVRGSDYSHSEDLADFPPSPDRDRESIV

[4] = organism: Rattus norvegicus; experiment: Effect on […] in rat by rotarod test; assay type: functional
[5] = organism: Rattus norvegicus; experiment: Effect on locomotor activity in rat; assay type: functional
[6] = test system: Rattus norvegicus; experiment: Analgesic activity in ip dosed rat by chung model of neuropathic pain; assay type: functional
[7] = biological target: Sodium channel protein type 10 subunit alpha (Homo sapiens, UniProt Q9Y5Y9); experiment: Binding affinity to Nav1.8 sodium channel
[8] = biological target: Sodium channel protein type 9 subunit alpha (Homo sapiens, UniProt Q15858); experiment: Binding affinity to Nav1.7 sodium channel
Sodium channel protein type 9 subunit alpha, sequence (Q15858 whole entry): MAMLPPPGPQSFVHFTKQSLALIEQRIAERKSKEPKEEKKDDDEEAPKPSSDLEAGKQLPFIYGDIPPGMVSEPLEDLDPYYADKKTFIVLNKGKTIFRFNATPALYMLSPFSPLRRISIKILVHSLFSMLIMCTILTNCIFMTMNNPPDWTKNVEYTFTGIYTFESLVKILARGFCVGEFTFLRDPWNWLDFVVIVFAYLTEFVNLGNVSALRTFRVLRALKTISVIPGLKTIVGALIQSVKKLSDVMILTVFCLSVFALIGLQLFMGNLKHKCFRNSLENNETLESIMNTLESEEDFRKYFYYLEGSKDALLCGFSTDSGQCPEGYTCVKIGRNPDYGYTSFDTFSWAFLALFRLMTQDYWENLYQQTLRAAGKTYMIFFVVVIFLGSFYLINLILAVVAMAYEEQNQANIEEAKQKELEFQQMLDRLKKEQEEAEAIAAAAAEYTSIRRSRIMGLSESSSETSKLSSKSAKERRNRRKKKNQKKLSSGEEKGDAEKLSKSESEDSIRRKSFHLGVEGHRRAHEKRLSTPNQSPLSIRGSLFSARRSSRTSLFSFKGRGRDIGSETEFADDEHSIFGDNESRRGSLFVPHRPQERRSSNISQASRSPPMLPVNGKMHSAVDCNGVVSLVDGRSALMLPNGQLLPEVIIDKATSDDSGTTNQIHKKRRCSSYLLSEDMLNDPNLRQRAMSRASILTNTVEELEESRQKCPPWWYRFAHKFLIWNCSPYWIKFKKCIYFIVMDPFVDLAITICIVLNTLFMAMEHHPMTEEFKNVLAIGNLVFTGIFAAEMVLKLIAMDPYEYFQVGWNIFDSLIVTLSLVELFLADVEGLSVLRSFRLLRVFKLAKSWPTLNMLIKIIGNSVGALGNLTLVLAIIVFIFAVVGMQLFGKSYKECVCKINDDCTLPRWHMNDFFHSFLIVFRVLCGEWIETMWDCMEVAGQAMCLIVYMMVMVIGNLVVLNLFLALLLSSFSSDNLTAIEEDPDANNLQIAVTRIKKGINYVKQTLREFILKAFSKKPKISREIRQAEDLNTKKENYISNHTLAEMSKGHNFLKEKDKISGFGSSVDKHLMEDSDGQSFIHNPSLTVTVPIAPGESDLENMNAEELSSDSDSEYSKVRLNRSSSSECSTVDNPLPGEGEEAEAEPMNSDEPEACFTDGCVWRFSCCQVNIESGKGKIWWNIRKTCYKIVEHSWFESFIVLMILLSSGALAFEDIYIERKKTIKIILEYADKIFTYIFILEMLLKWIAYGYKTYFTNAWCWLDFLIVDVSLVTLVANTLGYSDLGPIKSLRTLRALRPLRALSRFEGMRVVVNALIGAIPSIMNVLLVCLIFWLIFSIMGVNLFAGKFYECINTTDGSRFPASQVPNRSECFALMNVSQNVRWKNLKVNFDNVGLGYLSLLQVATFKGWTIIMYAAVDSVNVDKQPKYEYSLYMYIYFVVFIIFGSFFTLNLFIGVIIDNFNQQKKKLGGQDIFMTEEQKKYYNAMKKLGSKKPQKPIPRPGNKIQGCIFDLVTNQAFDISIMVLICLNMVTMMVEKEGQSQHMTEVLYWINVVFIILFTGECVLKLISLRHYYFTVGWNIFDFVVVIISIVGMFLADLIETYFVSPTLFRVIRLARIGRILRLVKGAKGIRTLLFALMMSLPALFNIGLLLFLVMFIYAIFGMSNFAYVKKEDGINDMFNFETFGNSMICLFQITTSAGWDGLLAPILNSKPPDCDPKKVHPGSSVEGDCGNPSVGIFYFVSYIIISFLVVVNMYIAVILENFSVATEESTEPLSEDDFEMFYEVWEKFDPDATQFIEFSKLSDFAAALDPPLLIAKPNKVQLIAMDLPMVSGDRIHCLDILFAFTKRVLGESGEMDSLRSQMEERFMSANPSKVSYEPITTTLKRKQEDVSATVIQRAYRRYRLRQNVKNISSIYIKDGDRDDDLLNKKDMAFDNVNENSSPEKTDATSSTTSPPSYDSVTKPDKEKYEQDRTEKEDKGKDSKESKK

COc1cc(NC(=O)c2ccc(-c3ccc(Cl)cc3)o2)cc(OC)c1
ED50 [1]: 86 µM | IC50 [2]: 7.18 µM | IC50 [3]: 7.44 µM | ED50 [4]: >300 µM | ED50 [5]: >300 µM | ED50 [6]: 47 µM

CN(Cc1ccc(-c2ccccc2S(N)(=O)=O)cc1)C(=O)[C@@H]1CCC[C@H]1C(=O)NCc1ccc(OC(F)(F)F)cc1
Ki [7]: 0.18 µM | Ki [8]: 0.25 µM
